Converted amounts (≈) assume the structure as drawn. “And” between values parts separate entries of the source, which are not always exact repeats. Equal values may be shown once. Where a name gives a salt, the structure may show the parent alone. Read-outs that look alike come from different tables or passages of the source.
Tests used:
[1] = system: gram positive and negative bacteria; test: Antibacterial testing against gram positive and negative bacteria; type: cell-based
Description: In addition to the harmaline dimers compounds, other bicyclic indole compounds (203, 233, 476/6 and 504/6,) were also tested against gram positive and negative bacteria. Particularly, the indole ethyl urea molecules 203, 233 and the tryptamide dimer molecules 476/6, 504/6, as shown below, were tested.

E. coli (ATCC 25922) = test: Broth microdilution MIC assay, E. coli; details: for MIC: Escherichia coli
Description: (§2) The concentration of compound required to visibly stop the growth of bacteria is known as minimum inhibitory concentration (MIC). Different concentrations of the compounds are tested for the exact same number of bacteria, and the growth is monitored with time.
(§3) Bacterial strains were purchased from the American Type Culture Collection (ATCC) for the studies.
(§4) The MIC assay procedure follows the guidelines set by the Clinical Laboratory Sciences Institute (CLSI).
(§5) To do this, bacteria were transferred from pure agar culture, aseptically transferred in 5 mL of Cation-Adjusted Mueller-Hinton Broth (CAMHB). The broth was incubated overnight at 35° C. to stationary phase to achieve a turbidity suspension. A spectrophotometer (SpectraMax ID5) was used to measure the turbidity (optical density—OD at 625 nm). The inoculum was prepared by adjusting the turbidity of overnight culture to 0.5 McFarland, which is equal to the defined number of bacteria 1×10^8 CFU/ml.
(§6) (b) Compound Dilution: All compounds used in the study were dissolved in sterile ultra-pure DMSO (VWR International, PA, USA) and maintained at −80° C. Stock solution of the compound was freshly prepared the day of use or is prepared from a frozen stock solution stored at −80° C. […] The compound solution was prepared at a desired concentration in DMSO, and 1/10 dilution was performed in a sterile CAMHB medium. This 10-fold dilution of stock solution was used for a 2-fold serial dilution in a 96-well plate to observe an inhibitory effect of the compound on bacterial growth. 100 μL of diluted drug solution was transferred to a first column of the 96-well plate. 50 μL of sterile CAMHB was transferred to each well from well 2 to well 12. Next, 50 μL was removed from well 1 and added to well 2. The contents from well 2 were mixed by pipetting up and down. Next, 50 µL were removed from well 2 and added to well 3. This process was continued till well 11 is reached. 50 μL was discarded from the well 11. Each compound concentration was tested in triplicate.
(§7) (c) Inoculation of 96-well plate: The same number of bacteria (1×10^5 CFU/mL) were prepared after 150-fold dilution of 0.5 McFarland inoculum and used to add in the wells of different drug concentrations. 50 μL of working inoculum was carefully added to each well, except the sterility well 12. Mixing is performed by gently flushing the inoculum in and out of the pipette tip four or five times, avoiding splashing and bubble formation.
(§8) (d) Incubation: Plates were incubated at 35° C. for 24 hours without shaking or agitation.
(§9) (e) Determination of MIC: After 18-24 hours of incubation, the plates were read for MIC. SpectraMax iD5 microplate reader was used to measure turbidity at different time points. Turbidity (OD) increases as the bacteria grow over time.

E. faecalis (ATCC 29212) [2] = test: Minimum bactericidal concentration (MBC) assay, E. faecalis; type: cell-based, Enterococcus faecalis
Description: (§1) (f) Determination of MBC: MBC was determined by sampling all the macroscopically clear wells. Before sampling, the wells were gently mixed by flushing them with a pipette, and a 5 μL was removed and placed on an agar plate suitable for the growth of the microbe being tested. The agar plate was divided into three parts to test three trials of a single concentration. The sample was allowed to be absorbed into the agar for ˜30 minutes. The plates were then incubated for 24 hours at 37° C. After incubation, the plates were examined to determine the compound concentration at which 99.9% killing was achieved.

[3] = system: engineered Salmonella typhimurium strain (umuC, β-galactosidase)
Description: The EBPI UMU-ChromoTest™ assay is used for the detection and quantification of genotoxicity of compounds and is based on the International Organization for Standardization protocol ISO 13829. The UMU-ChromoTest™ assay utilizes a native bacterial mechanism for the detection of compound genotoxicity. The bacteria used for the assay is an engineered Salmonella typhimurium strain developed to include a gene coding for the β-galactosidase (β-gal) enzyme tethered to the umuC, a damage response gene. DNA damage activates the SOS system to transcribe β-gal proportional to the level of SOS induction. The UMU-ChromoTest™ bacterial strain has modifications to increase sensitivity to genotoxins with (a) increased sensitivity for even limited damage, (b) modified outer membrane of the cell to increase permeability to exogenous materials, and (c) production of a color change on addition to chromogenic substrate (ONPG), which is a quantitative measure of genotoxic damage to bacterial DNA.
Rehydration of Dried Bacteria and Culture Growth: The bacteria were rehydrated and incubated at 37° C. for 16-18 hours. OD600 of the overnight culture should be 0.5 or at least above 0.1 at 600 nm.
Sample Preparation and Plate Setup: The dimer compounds were dissolved in DMSO. All dilution and controls were made in the solvent of 10% DMSO in sterile 0.85% saline. The pH of the compounds was adjusted to 7.0±0.2 before incubation with bacteria to facilitate bacterial growth and prevent degradation of ONPG later in the assay. The solutions of hydrochloric acid and sodium hydroxide were used to adjust pH with minimal addition volumes to prevent excessive sample dilution. Six samples were run at 4 dilutions at a time.
Preliminary Dilution of Bacteria: The overnight bacterial culture was diluted to 50% by performing a reinoculation with 5 mL of overnight growth and 5 mL of fresh Growth media. The reinoculated bacteria was inoculated for 1.5 hours at 37° C. The OD600 should be approximately 80% of the reading from overnight growth or slightly higher.
Preparation of Plate A: Distilled water (180 μL) was added to all wells, except for rows A to F, columns 1 to 3 and row H, columns 1 to 6. Rows A to F are used for 6 compounds per plate. The test compounds (360 μL) were added to the first three wells (three replicates) of the same microplate, such that wells 1-3 were a triplicate set of the highest concertation of test compound (360 μL). Wells 4-12 each contained 180 μL of distilled water. For dilution, half of the contents (180 μL) from wells 1-3 was transferred to wells 4-6 which makes a second triplicate set. For a third dilution, half of the contents from wells 4-6 were transferred to 7-9, and for the fourth triplicate set, half of the contents from wells 7-9 was transferred to 10-12. […]

S. aureus (ATCC 29213) [4] = test: Broth microdilution MIC assay, S. aureus; details: for MIC: Staphylococcus aureus
Description: as §2, §3, §4, §5, §6, §7, §8, §9

[5] = system: MRSA: S. aureus resistant to methicillin and oxacillin (ATCC 43300); test: Broth microdilution MIC assay, MRSA; details: for MIC: Staphylococcus aureus, ATCC43300|MRSA, read-out: MIC (bacterial growth inhibition)
Description: as §2, §3, §4, §5, §6, §7, §8, §9

E. faecalis (ATCC 29212) [6] = test: Broth microdilution MIC assay, E. faecalis; details: Enterococcus faecalis, ATCC29212, read-out: MIC (bacterial growth inhibition)
Description: as §2, §3, §4, §5, §6, §7, §8, §9

MRSA (ATCC 43300) = test: Minimum bactericidal concentration (MBC) assay, MRSA; type: cell-based; details: Staphylococcus aureus, MRSA
Description: as §1

[7] = system: Candida albicans (ATCC 18804); test: Antifungal broth microdilution MIC assay; type: cell-based; details: for MIC: Candida albicans, ATCC18804, C. albicans, read-out: MIC (antifungal growth inhibition)
Description: Synthesized compounds were tested for antifungal activity towards the fungus strain, Candida albicans. […] Different concentrations of the compounds were tested for the exact same number of fungi, and the growth is monitored with time. MIC was determined by using the broth microdilution assay. Fungus strain, C. albicans was purchased from ATCC (ID: 18804) for the studies. […] This solution was used to make a working solution by preparing a 1:50 dilution, followed by a 1:20 dilution, with RPMI 1640 medium to obtain 2× test inoculum. The 2× inoculum is diluted 1:1 to achieve the final inoculum size (0.5×10^3 to 2.5×10^3 cells per mL). RPMI 1640 medium was used with L-glutamine and phenol red as a pH indicator but without bicarbonate and a glucose concentration of 0.2%. […] All plates were then read visually under normal laboratory lighting using a mirror viewer. Wells were scored for the growth compared to that of the drug free control well. Plates were read at 530 nm with subtraction of the blank from the reading of each well. Turbidity (OD) increases as the fungus grows over time.

S. aureus (ATCC 29213) [8] = test: Minimum bactericidal concentration (MBC) assay, S. aureus; type: cell-based; details: Staphylococcus aureus, ATCC29213, 24 h; S. aureus; read-out: MBC (kills bacteria)
Description: as §1

[9] = system: VREF: E. faecalis resistant to vancomycin (ATCC 51299); test: Broth microdilution MIC assay, VREF; details: Enterococcus faecalis, ATCC51299, read-out: MIC (bacterial growth inhibition)
Description: as §2, §3, §4, §5, §6, §7, §8, §9

[10] = ATCC29213, read-out: MIC (bacterial growth inhibition), S. aureus, time not given

COc1ccc2c(CCNC(=O)CCCC(=O)NCCc3c[nH]c4cc(OC)ccc34)c[nH]c2c1 [476/6]
bacteriostatic/bactericidal activity [1]: no bacteriostatic/bactericidal activity observed

COc1ccc2c3c([nH]c2c1)C(CC(CC1=NCCc2c1[nH]c1cc(OC)ccc21)c1c[nH]c2ccc(C#N)cc12)=NCC3 [GK580, 3-(1,3-bis(7-methoxy-4,9-dihydro-3H-pyrido[3,4-b]indol-1-yl)propan-2-yl)-1H-indole-5-carbonitrile]
MIC (E. coli (ATCC 25922); ATCC25922, read-out: MIC (bacterial growth inhibition), E. coli): 12.5 µg/mL (≈ 21.5 µM)
MBC (kills bacteria) (E. faecalis (ATCC 29212) [2]): > 88 µg/mL
genotoxic concentration (no genotoxicity up to) ([3]; S9 not stated): > 30 µg/mL
MIC (bacterial growth inhibition) (S. aureus (ATCC 29213) [4]; S. aureus, time not given): 3.5 µg/mL (≈ 6.03 µM)
MIC (S. aureus (ATCC 29213) [4]; [10]): 5.5 µg/mL (≈ 9.47 µM)
MIC [5]: 3.5 µg/mL (≈ 6.03 µM)
MIC (E. faecalis (ATCC 29212) [6]): 44 µg/mL (≈ 75.8 µM)
MBC (MRSA (ATCC 43300); read-out: MBC): 7 µg/mL
MIC ([7]; after 24 hours of incubation): 12.2 µg/mL (≈ 21.1 µM)
MIC ([7]; after 48 hours of incubation): 12.2 µg/mL (≈ 21.1 µM)
concentration inhibiting fungal growth ([7]; time not stated): 12.5 µg/mL
MBC (S. aureus (ATCC 29213) [8]): 11 µg/mL (≈ 18.9 µM)
MIC [9]: > 88 µg/mL

COc1ccc2c3c([nH]c2c1)C(CC(CC1=NCCc2c1[nH]c1cc(OC)ccc21)c1c[nH]c2ccc(C(=O)O)cc12)=NCC3 [GK599]
concentration at which activity is shown (E. coli (ATCC 25922); E. coli): 100 µg/mL
concentration at which activity is shown (S. aureus (ATCC 29213) [4]; S. aureus): 6.25 µg/mL

COc1ccc2c3c([nH]c2c1)C(CC(CC1=NCCc2c1[nH]c1cc(OC)ccc21)c1ccccn1)=NCC3 [GK517.2]
MIC (bacterial growth inhibition) (E. coli (ATCC 25922); E. coli): no activity was observed
MIC (S. aureus (ATCC 29213) [4]; ATCC29213, 24 h, read-out: MIC (bacterial growth inhibition), S. aureus, up to 24 hours): 64.7 µg/mL (≈ 125 µM)
MIC ([5]; 24 h): 64.7 µg/mL (≈ 125 µM)
MBC (MRSA (ATCC 43300); read-out: MBC): > 129 µg/mL
MBC (MRSA (ATCC 43300); read-out: MRSA-MBC): > 250 µM
MBC (S. aureus (ATCC 29213) [8]): > 129 µg/mL

COc1ccc2c3c([nH]c2c1)C(C)=NCC3 [Harmaline, reference compound]
MIC (E. coli (ATCC 25922); ATCC25922, read-out: MIC (bacterial growth inhibition)): 707 µg/mL and 3300 µM
MIC (S. aureus (ATCC 29213) [4]; ATCC29213, read-out: MIC (bacterial growth inhibition)): 707 µg/mL and 3300 µM

COc1ccc2c3c([nH]c2c1)C(CC(CC1=NCCc2c1[nH]c1cc(OC)ccc21)c1ccc(C(F)(F)F)nc1)=NCC3 [GK585]
MIC (bacterial growth inhibition) (E. coli (ATCC 25922); E. coli): No bacteriostatic or bactericidal activities were observed
genotoxicity ([3]; at 12.5 and 25 μM): no genotoxicity
genotoxicity ([3]; at 50 and 100 μM): interfered with testing protocols
MIC (S. aureus (ATCC 29213) [4]; [10]): 73.2 µg/mL (≈ 125 µM)
MIC [5]: 73.2 µg/mL (≈ 125 µM)
MBC (MRSA (ATCC 43300); read-out: MBC): > 146 µg/mL
MBC (MRSA (ATCC 43300); read-out: MRSA-MBC): > 250 µM
MBC (S. aureus (ATCC 29213) [8]): > 146 µg/mL

COc1ccc2[nH]cc(CCNC(N)=O)c2c1 [Compound 233]
bacteriostatic/bactericidal activity [1]: no bacteriostatic/bactericidal activity observed

COc1ccc2c3c([nH]c2c1)C(/C=C/c1cc(Cl)ccc1N)=NCC3 [GK350]
concentration showing ~50% growth inhibition (E. coli (ATCC 25922); E. coli): 1.5 µg/mL
MIC (S. aureus (ATCC 29213) [4]; [10]): 25 µg/mL (≈ 71.1 µM)

COc1ccc2c3c([nH]c2c1)C(CC(CC1=NCCc2c1[nH]c1cc(OC)ccc21)c1c[nH]c2ccc(C(=O)O)cc12)=NCC3 [GK599.HCl]
concentration at which activity is shown (E. coli (ATCC 25922); E. coli): 50 µg/mL
concentration at which activity is shown (S. aureus (ATCC 29213) [4]; S. aureus): 12.5 µg/mL
concentration at which activity is shown ([5]; MRSA): 12.5 µg/mL

COc1ccc2c3c([nH]c2c1)C(CC(CC1=NCCc2c1[nH]c1cc(OC)ccc21)C1CC1)=NCC3 [GK480]
concentration at which activity is shown (E. coli (ATCC 25922); E. coli): 50 µg/mL
concentration at which activity is shown (S. aureus (ATCC 29213) [4]; S. aureus): 3.25 µg/mL
